The target of test [1] is T1, chitinase B1 from Aspergillus fumigatus (AfChiB1) (Aspergillus fumigatus, UniProt Q873X9).
T1 construct: made in house; host or cells: Escherichia coli
The experiment in a line: biochemical. To be noted: for AfChiB1 BEI (Binding Efficiency Index): BEI = −log(Ki)/M, M in kilodaltons, Ki derived from IC50 by Cheng and Prusoff equation. The procedure: Chitinase activities for AfChiB1 ([Rao et al., 2005b]), hCHT ([Boot et al., 1998]), and total chitinase activity in lung homogenate samples from a mouse model of chronic asthma were determined as previously described ([Schüttelkopf et al., 2006]). […] AfChiB1 (2 nM) was incubated with 20 μM 4-methylumbelliferyl-β-D-N-N'-diacetylchitobiose (4MU-GlcNAc2; Sigma) and 0.25 mg/ml bovine serum albumin in 100 mM citric acid, 200 mM Na2HPO4 (pH 5.5). hCHT (0.3 nM) was incubated with 22 μM 4-methylumbelliferyl-β-D-N-N'-triacetylchitobiose (4MU-GlcNAc3; Sigma) and 0.25 mg/ml bovine serum albumin in 100 mM citric acid, 200 mM Na2HPO4 (pH 5.2). Lung homogenate (39 μg/ml) (obtained as described previously [[Schüttelkopf et al., 2006]]) was incubated with 20 μM 4MU-GlcNAc2 in 100 mM citric acid, 200 mM Na2HPO4 (pH 5.5). All reactions were run for 10 min at 37°C, and liberated 4-methylumbelliferone (4MU) was quantified after addition of 25 μl 3 M glycine-NaOH (pH 10.6) using an Flx 800 microtiterplate fluorescence reader (Bio-Tek instruments) with 40 nm slits and excitation and emission wavelengths of 360 nm and 460 nm, respectively.

Test [2] concerns the target T1, chitinase B1 from Aspergillus fumigatus (AfChiB1). To be noted: Table 1, argifin value reported previously, ref Rao et al., 2005b, Dixon et al.; cited from earlier work.
Test [3] deals with chitinase B from Serratia marcescens. On the set-up: method as in Houston et al., 2002b. To be noted: ref Houston et al., 2002b; read-out: IC50 against chitinase B from Serratia marcescens; cited from earlier work.

Read-outs that look alike come from different tables or passages of the source. Numbered stars: 1 amine (or outer) side, 2 acyl side, 3 side chain; on linkers, the order of the positions; unused ones are H or OH. Square brackets hold non-standard residues; d marks the D form. Side chains are listed from the residue outwards. Peptide text beside a SMILES is read from it. NMeF = CN[C@@H](Cc1ccccc1)C(=O)O; CO = O=C([*:1])[*:2]

Broadly, the IC50 is the concentration that inhibits the measured activity by half.

As to `CNC(=N)NC(=O)NC` [Dimethylguanylurea, dimethylguanylurea], the “AfChiB1 BEI (Binding Efficiency Index)” value in test [1] is reported as 27.7. For `CNC(=O)NC(=N)NCCCC(NC(C)=O)C(=O)NC` (stereo not shown) [Monopeptide], in test [1], the “AfChiB1 BEI (Binding Efficiency Index)” value is 15.3. Also, the concentration for half-maximal inhibition (IC50) in test [1] (read-out: IC50 against AfChiB1) worked out at 81 µM. For the molecule `CNC(=O)NC(=N)NCCC[C@H](NC(C)=O)C(=O)N(C)[C@@H](Cc1ccccc1)C(=O)N[C@@H](CC(=O)O)C(=O)O` [Tripeptide] (Ac-Arg([CO-NHMe])-[NMeF]-Asp-OH), the “AfChiB1 BEI (Binding Efficiency Index)” value in test [1] is reported as 10.2. On to argifin, for which the “AfChiB1 BEI (Binding Efficiency Index)” value in test [1] was determined as 11.7. The IC50 in test [2] is 0.027 µM; in test [3], 33 µM.

The values are drawn from publication PMC3764403 (Chemistry & Biology, 2008).
